molecular target: T1, USP7, Active human recombinant protein (Homo sapiens, UniProt Q93009); assay: USP7 assay (Ubiquitin-Rhodamine 110 enzymatic assay); format: biochemical; conditions: read-out: IC50
T1 construct: purchased CP Lot; 20200225001
Experimental: Enzymatic Assays with Exemplary USP7 Irreversible Inhibitors
ND refers to not disclosed.
USP7, Active human recombinant protein (CP, Lot. 20200225001), Ubiquitin-Rhodamine 110 (Rh110) (BostonBiochem, Cat. No. U-555), DMSO (Sigma, Cat. N34869), DTT (Sangon Biotech, Cat. No. A620058-0005), […] Tris pH 8.0 (Sigma, Cat. No. T2694-1L), Tween-20 (Sigma, Cat. No. P2287-100ML), EDTA (Invitrogen, Cat. No. 15575020, BSA (Sigma, Cat. No. B2064-100G), 384-well assay plate (Corning, Cat. No. 3573), Echo Qualified 384-Well Polypropylene Microplate 2.0, Clear, Flat Bottom (LABCYTE, Cat. No. 001-14555).
Dilute the compounds to 400× of the final desired highest inhibitor concentration in reaction by 100% DMSO. For all compounds, transfer the compounds to one well in a 384-well Echo plate and serially dilute the compound by 3-fold dilution of 100% DMSO in the next well and so forth for a total of 10 concentrations by Precision. Add 30 μL of 100% DMSO to two empty wells for no compound control and no enzyme control in the same 384-well Echo plate. Make the plate as a source plate.
For USP7 assay, transfer 50 nL of each well from the source plate to a 384-well assay plate (OptiPlate TM-384 F black assay plates) by Echo 550 Liquid Handler.
Added appropriate amount of USP7 in 1× assay Buffer to prepare 2× enzyme solution (USP7 final concentration: 0.05 nM). Added appropriate amount of Ubiquitin-Rhodamine 110 in 1× assay Buffer to prepare 2× substrate solution (Ubiquitin-Rhodamine 110 final concentration: 190 nM). Added 10 μL of 2× enzyme solution to each reaction well of the 384-well assay plate, except for control wells without enzyme (add 10 μL of 1× Assay Buffer instead as for low control). […] Transferred 2× substrate solution to the assay plate. Added 10 μL of 2× substrate solution to each well of the 384-well assay plate to start reaction. Centrifuged at 1000 rpm for 1 min. Read the plate kinetically on SpectraMax Paradigm for 20 min with excitation at 485 nm and emission at 535 nm. Copied raw data (slope) from Reader to obtain inhibition values in Excel using equation (1): […]
Max signal was obtained from the action of Enzyme and Substrate. Min signal was obtained from the Substrate only. To fit the data in XLFit excel add-in version 5.4.0.8 to obtain IC50 values used equation (2): […]
Y is % inhibition and X is compound concentration.

T1 sequence (Q93009 whole entry): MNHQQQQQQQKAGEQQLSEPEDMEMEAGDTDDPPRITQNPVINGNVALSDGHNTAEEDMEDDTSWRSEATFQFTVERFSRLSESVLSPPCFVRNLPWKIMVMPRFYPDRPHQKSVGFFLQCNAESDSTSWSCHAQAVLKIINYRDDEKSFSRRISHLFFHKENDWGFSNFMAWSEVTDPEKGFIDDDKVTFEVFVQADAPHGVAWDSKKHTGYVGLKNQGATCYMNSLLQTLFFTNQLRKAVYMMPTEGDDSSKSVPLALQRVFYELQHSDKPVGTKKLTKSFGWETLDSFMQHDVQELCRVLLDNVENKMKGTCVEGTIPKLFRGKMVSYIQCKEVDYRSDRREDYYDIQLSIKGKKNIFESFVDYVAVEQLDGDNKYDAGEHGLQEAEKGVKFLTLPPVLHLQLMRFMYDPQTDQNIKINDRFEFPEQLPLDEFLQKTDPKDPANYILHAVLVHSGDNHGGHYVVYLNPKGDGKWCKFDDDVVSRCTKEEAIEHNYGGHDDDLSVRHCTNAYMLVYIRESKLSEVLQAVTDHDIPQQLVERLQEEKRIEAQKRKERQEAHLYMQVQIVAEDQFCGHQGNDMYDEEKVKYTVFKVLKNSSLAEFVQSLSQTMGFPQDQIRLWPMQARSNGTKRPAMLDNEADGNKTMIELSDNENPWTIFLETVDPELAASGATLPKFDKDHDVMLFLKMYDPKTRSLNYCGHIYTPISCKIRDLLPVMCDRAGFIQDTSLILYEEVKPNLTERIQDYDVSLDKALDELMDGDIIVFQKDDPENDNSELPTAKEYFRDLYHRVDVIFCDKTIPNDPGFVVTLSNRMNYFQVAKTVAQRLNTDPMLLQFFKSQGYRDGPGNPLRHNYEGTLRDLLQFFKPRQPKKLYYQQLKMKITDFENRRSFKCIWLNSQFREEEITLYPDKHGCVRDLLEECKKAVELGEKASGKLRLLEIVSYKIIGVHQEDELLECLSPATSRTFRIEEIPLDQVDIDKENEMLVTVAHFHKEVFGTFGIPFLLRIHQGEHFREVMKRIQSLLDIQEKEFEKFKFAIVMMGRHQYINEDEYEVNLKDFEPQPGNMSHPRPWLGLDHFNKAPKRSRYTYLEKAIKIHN

SMILES	IC50
CN1CCN(CCC(=O)Nc2ccc3c(=O)n(CC4(O)CCN(C(=O)[C@H](CCCNC(=O)c5ccc6c(Cl)c7c(nc6c5)CCCC7)Cc5ccccc5)CC4)cnc3c2)CC1	100 to 1000 nM
C=CC(=O)Nc1ccc(C#N)cc1N1CCC(C(=O)N2CCC(O)(Cn3cnc4cc(NC(=O)CCN5CCN(C)CC5)ccc4c3=O)CC2)C(c2ccccc2)C1 (stereo not shown)	> 1000 nM
CN(C)CCCOc1ccc2c(=O)n(CC3(O)CCN(C(=O)[C@@H](CCCNC(=O)c4ccc5c(Cl)c(CO)cnc5c4)Cc4ccccc4)CC3)cnc2c1	< 20 nM
CN(C)CCCOc1ccc2c(=O)n(CC3(O)CCN(C(=O)C(Cn4ccc(F)n4)N(C)CCNC(=O)c4ccc5c(Cl)cc(C6CC6)nc5c4)CC3)cnc2c1 (stereo not shown)	100 to 1000 nM
CN(C)CCCOc1ccc2c(=O)n(CC3(O)CCN(C(=O)C(Cc4ccccc4)N(C)CCNC(=O)c4ccc5c(Cl)cc(C6CC6)nc5c4)CC3)cnc2c1 (stereo not shown)	100 to 1000 nM
CN1CCN(CCC(=O)Nc2ccc3c(=O)n(CC4(O)CCN(C(=O)[C@H](CCCNC(=O)c5ccc6c(Cl)cc(-c7ccc(F)cc7)nc6c5)Cc5ccccc5)CC4)cnc3c2)CC1 [Compound 4, (R)—N-(4-benzyl-5-(4-hydroxy-4-((7-(3-(4-methylpiperazin-1-yl)propanamido)-4-oxoquinazolin-3(4H)-yl)methyl)piperidin-1-yl)-5-oxopentyl)-4-chloro-2-(4-fluorophenyl)quinoline-7-carboxamide]	> 1000 nM
O=C(NCCC[C@H](Cc1ccccc1)C(=O)N1CCC(O)(Cn2cnc(NCCN3CCCC3)cc2=O)CC1)c1ccc2c(Cl)ccnc2c1 [Compound 12, N-(4-benzyl-5-(4-hydroxy-4-((6-oxo-4-(2-(pyrrolidin-1-yl)ethylamino)pyrimidin-1(6H)-yl)methyl)piperidin-1-yl)-5-oxopentyl)-4-chloroquinoline-7-carboxamide]	> 1000 nM
CN1CCN(CCC(=O)Nc2ccc3c(=O)n(CC4(O)CCN(C(=O)C(CCCNC(=O)c5ccc6c(Cl)cc(-c7cccnc7)nc6c5)Cc5ccccc5)CC4)cnc3c2)CC1 (stereo not shown) [Compound 14, N-(4-benzyl-5-(4-hydroxy-4-((7-(3-(4-methylpiperazin-1-yl)propanamido)-4-oxoquinazolin-3(4H)-yl)methyl)piperidin-1-yl)-5-oxopentyl)-4-chloro-2-(pyridin-3-yl)quinoline-7-carboxamide]	100 to 1000 nM
CN1CCN(CCC(=O)Nc2ccc3c(=O)n(CC4(O)CCN(C(=O)C(CCCNC(=O)c5ccc6c(Cl)cc(-c7cccc(C(F)(F)F)c7)nc6c5)Cc5ccccc5)CC4)cnc3c2)CC1 (stereo not shown) [Compound 15, N-(4-benzyl-5-(4-hydroxy-4-((7-(3-(4-methylpiperazin-1-yl)propanamido)-4-oxoquinazolin-3(4H)-yl)methyl)piperidin-1-yl)-5-oxopentyl)-4-chloro-2-(3-(trifluoromethyl)phenyl)quinoline-7-carboxamide]	100 to 1000 nM

The remaining lines, values ahead:

IC50	SMILES
< 20 nM	CN1CCN(CCC(=O)Nc2ccc3c(=O)n(CC4(O)CCN(C(=O)C(CCCNC(=O)c5ccc6c(Cl)c7c(nc6c5)CCCC7)Cc5ccccc5)CC4)cnc3c2)CC1 (stereo not shown)
20 to 100 nM	O=C(NCCC1CC[C@@H](C(=O)N2CCC(O)(Cn3cnc4cc(-c5ncc(CN6CCNCC6)o5)ccc4c3=O)CC2)[C@H](c2ccccc2)C1)c1ccc2c(Cl)ccnc2c1 (stereo partly shown)
20 to 100 nM	Nc1cccc(-n2ncc3c(=O)n(CC4(O)CCN(C(=O)C(CCCNC(=O)c5ccc6c(Cl)ccnc6c5)Cc5ccccc5)CC4)cnc32)c1 (stereo not shown) [Compound 8, N-(5-(4-((1-(3-aminophenyl)-4-oxo-1H-pyrazolo[3,4-d]pyrimidin-5(4H)-yl)methyl)-4-hydroxypiperidin-1-yl)-4-benzyl-5-oxopentyl)-4-chloroquinoline-7-carboxamide]
20 to 100 nM	N[C@@H](c1ccc(-n2ncc3c(=O)n(CC4(O)CCN(C(=O)C(CCCNC(=O)c5ccc6c(Cl)ccnc6c5)Cc5ccccc5)CC4)cnc32)cc1)C(F)(F)F (stereo partly shown) [Compound 9, N-(5-(4-((1-(4-(1-amino-2,2,2-trifluoroethyl)phenyl)-4-oxo-1H-pyrazolo[3,4-d]pyrimidin-5(4H)-yl)methyl)-4-hydroxypiperidin-1-yl)-4-benzyl-5-oxopentyl)-4-chloroquinoline-7-carboxamide]

From patent US20240376076A1, “INHIBITORS TARGETING UBIQUITIN SPECIFIC PROTEASE 7 (USP7)” (Dana-Farber Cancer Institute, Inc., priority 2021, published 2024)
